# Test results from patent publication US20020137929A1, “1 - (3-heterocyclylphenyl) isothiourea, -isourea, -guanidine and -amidine herbicidal agents” (Intellectual Property Department, BASF Aktiengesellschaft, priority 1998, published 2002).
# Tests used:
# ABUTH (Velvetleaf) = assay: Postemergence herbicidal evaluation; type: in vivo, Abutilon theophrasti
# Experimental: (§1) In the tests, seedling plants are grown in jiffy flats for about two weeks. The test compounds are dispersed in 50/50 acetone/water mixtures containing 0.5% TWEEN®20, a polyoxyethylene sorbitan monolaurate surfactant of Atlas Chemical Industries, in sufficient quantities to provide the equivalent of about 0.0156 kg to 0.500 kg per hectare of active compound when applied to the plants through a spray nozzle operating at 40 psi for a predetermined time. After spraying, the plants are placed on greenhouse benches and are cared for in accordance with conventional greenhouse procedures. From four to five weeks after treatment, the seedling plants are examined and rated according to the rating system set forth below. Where more than one test is involved for a given compound, the data are averaged.
# (§2) Plant species employed in these evaluations are reported by header abbreviation, common name and scientific name.
# (§3) Results of herbicide evaluation are expressed on a rating scale (0-9). The scale is based upon a visual observation of plant stand, vigor, malformation, size, chlorosis and overall plant appearance as compared with a control.
# AMBEL (Ragweed, Common) = assay: Postemergence herbicidal evaluation; type: in vivo, Ambrosia artemisifolia
# Experimental: as §1, §2, §3
# CASOB (Sicklepod) = assay: Postemergence herbicidal evaluation; type: in vivo, Cassia obtusifolia
# Experimental: as §1, §2, §3
# [1] = system: CHEAL (Lambsquarters, Common); assay: Postemergence herbicidal evaluation; type: in vivo, Chenopodium album
# Experimental: as §1, §2, §3
# GALAP (Galium) = assay: Postemergence herbicidal evaluation; type: in vivo, Galium aparine
# Experimental: as §1, §2, §3
# [2] = system: IPOHE (Morningglory, Ivyleaf); assay: Postemergence herbicidal evaluation; type: in vivo, Ipomoea hederacea
# Experimental: as §1, §2, §3
# ECHCG (Barnyardgrass) = assay: Postemergence herbicidal evaluation; type: in vivo, Echinochloa crus-galli
# Experimental: as §1, §2, §3
# SETVI (Foxtail, Green) = assay: Postemergence herbicidal evaluation; type: in vivo, Setaria viridis
# Experimental: as §1, §2, §3
# [3] = system: GLXMAW (Soybean, Williams); assay: Postemergence herbicidal evaluation; type: in vivo, Glycine max, (L.) Merr. cv Williams
# Experimental: as §1, §2, §3
# ORYSAT (Rice, Tebonnet) = assay: Postemergence herbicidal evaluation; type: in vivo, Oryza sativa, (L.) Tebonnet
# Experimental: as §1, §2, §3
# [4] = system: TRZAWR (Wheat, Winter, cv Riband); assay: Postemergence herbicidal evaluation; type: in vivo, Triticum aestivum
# Experimental: as §1, §2, §3
# ZEAMX (Corn, Field) = assay: Postemergence herbicidal evaluation; type: in vivo, Zea mays
# Experimental: as §1, §2, §3
# [5] = system: ECHORC (Watergrass (Calif.)); assay: Preemergence weed control under flooded paddy conditions; type: in vivo, Echinochloa oryzoides; conditions: rated 3-4 weeks after treatment
# Experimental: as §3
# (§4) Preemergence herbicidal activity under flooded paddy conditions is determined as follows: plant seeds or propagating organs are planted in the top 0.5 cm of silt loam soil in 32 oz. plastic containers with a diameter of 10.5 cm and no drainage holes. Water is added to these containers and maintained at 1.5 to 3 cm above the soil surface for the duration of the experiment. The test compounds are applied as aqueous/acetone mixtures 50/50 v/v pipetted directly into the flood water to give the equivalent of about 0.0313 to 0.500 kg/ha of active ingredient. The treated containers are placed on greenhouse benches and cared for in accordance with conventional greenhouse procedures. Three to four weeks after treatment, the test is terminated and each container is examined and herbicidal effect rated according to the rating system provided in Example 37. The compounds evaluated are reported by compound number given in Example 37.
# (§5) Plant species employed in this example are reported by header abbreviation, common name and scientific name.
# CYPIR (Rice Flatsedge) [6] = assay: as above; type: in vivo, Cyperus iria; conditions: rated 3-4 weeks after treatment
# Experimental: as §3, §4, §5
# CYPSE (Flatsedge) [7] = assay: as above; type: in vivo, Cyperus serotinus; conditions: rated 3-4 weeks after treatment
# Experimental: as §3, §4, §5
# MOOVA (Monochoria) [8] = assay: as above; type: in vivo, Monochoria vaginalis; conditions: rated 3-4 weeks after treatment
# Experimental: as §3, §4, §5
# [9] = system: SAGPY (Arrowhead (Pygmaea)); assay: as above; type: in vivo, Sagittaria pygmaea; conditions: rated 3-4 weeks after treatment
# Experimental: as §3, §4, §5
# [10] = system: ECHORC (Watergrass (Calif.)); assay: Postemergence weed control under flooded paddy conditions; type: in vivo, Echinochloa oryzoides; conditions: postemergence weeds, 3-4 weeks after treatment
# From the text: as §3
# (§6) Plastic containers containing weeds which are 3 to 5 cm tall and rice seedlings at the 1.5 to 2.5 leaf stage are flooded with water. The water is maintained at 1.5 to 3 cm above the soil surface for the duration of the experiment. Test compounds are applied as aqueous/ acetone mixtures 50/50 v/v directly into the flood water to provide the equivalent of about 0.0313 to 0.500 kg/ha of active ingredient. The treated containers are placed on greenhouse benches and cared for in accordance with conventional greenhouse procedures. Three to four weeks after treatment, the test is terminated and each container is examined and herbicidal effect rated according to the rating system provided in Example 37. The compounds evaluated are reported by compound number given in Example 37.
# CYPIR (Rice Flatsedge) [11] = assay: as above; type: in vivo, Cyperus iria; conditions: postemergence weeds, 3-4 weeks after treatment
# From the text: as §3, §6
# CYPSE (Flatsedge) [12] = assay: as above; type: in vivo, Cyperus serotinus; conditions: postemergence weeds, 3-4 weeks after treatment
# From the text: as §3, §6
# MOOVA (Monochoria) [13] = assay: as above; type: in vivo, Monochoria vaginalis; conditions: postemergence weeds, 3-4 weeks after treatment
# From the text: as §3, §6
# [14] = system: SAGPY (Arrowhead (Pygmaea)); assay: as above; type: in vivo, Sagittaria pygmaea; conditions: postemergence weeds, 3-4 weeks after treatment
# From the text: as §3, §6
smiles,measurement,setting,value
"CCOC(=O)CN1C(=O)C(CC(N)=O)S/C1=N/c1cc(-n2c(=O)cc(C(F)(F)F)n(C)c2=O)c(F)cc1Cl (stereo not shown) [Compound 56, Ethyl 5-(carbamoylmethyl)-2-{{2-chloro-5-[3,6-dihydro-3-methyl-2,6-dioxo-4-(trifluoromethyl)-1(2H)-pyrimidinyl]-4-fluorophenyl}imino}-4-oxo-3-thiazolidineacetate]",Postemergence herbicidal rating ABUTH,ABUTH (Velvetleaf); Rate 0.0158 kg/ha,9.0
same,Postemergence herbicidal rating ABUTH,ABUTH (Velvetleaf); Rate 0.0315 kg/ha,9.0
same,Postemergence herbicidal rating ABUTH,ABUTH (Velvetleaf); Rate 0.0630 kg/ha,9.0
same,Postemergence herbicidal rating AMBEL,"AMBEL (Ragweed, Common); Rate 0.0158 kg/ha",9.0
same,Postemergence herbicidal rating AMBEL,"AMBEL (Ragweed, Common); Rate 0.0315 kg/ha",9.0
same,Postemergence herbicidal rating AMBEL,"AMBEL (Ragweed, Common); Rate 0.0630 kg/ha",9.0
same,Postemergence herbicidal rating CASOB,CASOB (Sicklepod); Rate 0.0158 kg/ha,4.0
same,Postemergence herbicidal rating CASOB,CASOB (Sicklepod); Rate 0.0315 kg/ha,4.0
same,Postemergence herbicidal rating CASOB,CASOB (Sicklepod); Rate 0.0630 kg/ha,9.0
same,Postemergence herbicidal rating CHEAL,[1]; Rate 0.0158 kg/ha,9.0
same,Postemergence herbicidal rating CHEAL,[1]; Rate 0.0315 kg/ha,9.0
same,Postemergence herbicidal rating CHEAL,[1]; Rate 0.0630 kg/ha,9.0
same,Postemergence herbicidal rating GALAP,GALAP (Galium); Rate 0.0158 kg/ha,3.0
same,Postemergence herbicidal rating GALAP,GALAP (Galium); Rate 0.0315 kg/ha,6.0
same,Postemergence herbicidal rating GALAP,GALAP (Galium); Rate 0.0630 kg/ha,9.0
same,Postemergence herbicidal rating IPOHE,[2]; Rate 0.0158 kg/ha,9.0
same,Postemergence herbicidal rating IPOHE,[2]; Rate 0.0315 kg/ha,9.0
same,Postemergence herbicidal rating IPOHE,[2]; Rate 0.0630 kg/ha,9.0
same,Postemergence herbicidal rating ECHCG,ECHCG (Barnyardgrass); Rate 0.0158 kg/ha,2.0
same,Postemergence herbicidal rating ECHCG,ECHCG (Barnyardgrass); Rate 0.0315 kg/ha,2.0
same,Postemergence herbicidal rating ECHCG,ECHCG (Barnyardgrass); Rate 0.0630 kg/ha,3.0
same,Postemergence herbicidal rating SETVI,"SETVI (Foxtail, Green); Rate 0.0158 kg/ha",6.0
same,Postemergence herbicidal rating SETVI,"SETVI (Foxtail, Green); Rate 0.0315 kg/ha",6.0
same,Postemergence herbicidal rating SETVI,"SETVI (Foxtail, Green); Rate 0.0630 kg/ha",7.0
same,Postemergence herbicidal rating GLXMAW,[3]; Rate 0.0158 kg/ha,7.0
same,Postemergence herbicidal rating GLXMAW,[3]; Rate 0.0315 kg/ha,7.5
same,Postemergence herbicidal rating GLXMAW,[3]; Rate 0.0630 kg/ha,8.0
same,Postemergence herbicidal rating ORYSAT,"ORYSAT (Rice, Tebonnet); Rate 0.0158 kg/ha",1.5
same,Postemergence herbicidal rating ORYSAT,"ORYSAT (Rice, Tebonnet); Rate 0.0315 kg/ha",2.0
same,Postemergence herbicidal rating ORYSAT,"ORYSAT (Rice, Tebonnet); Rate 0.0630 kg/ha",2.5
same,Postemergence herbicidal rating TRZAWR,[4]; Rate 0.0158 kg/ha,4.0
same,Postemergence herbicidal rating TRZAWR,[4]; Rate 0.0315 kg/ha,4.5
same,Postemergence herbicidal rating TRZAWR,[4]; Rate 0.0630 kg/ha,5.0
same,Postemergence herbicidal rating ZEAMX,"ZEAMX (Corn, Field); Rate 0.0158 kg/ha",5.0
same,Postemergence herbicidal rating ZEAMX,"ZEAMX (Corn, Field); Rate 0.0315 kg/ha",5.5
same,Postemergence herbicidal rating ZEAMX,"ZEAMX (Corn, Field); Rate 0.0630 kg/ha",6.5
same,Herbicidal rating ECHORC,[5]; 0.0313 kg/ha,0.0
same,Herbicidal rating ECHORC,[5]; 0.0625 kg/ha,0.0
same,Herbicidal rating ECHORC,[5]; 0.1250 kg/ha,3.0
same,Herbicidal rating ECHORC,[5]; 0.2500 kg/ha,5.0
same,Herbicidal rating CYPIR,CYPIR (Rice Flatsedge) [6]; 0.0313 kg/ha,0.0
same,Herbicidal rating CYPIR,CYPIR (Rice Flatsedge) [6]; 0.0625 kg/ha,0.0
same,Herbicidal rating CYPIR,CYPIR (Rice Flatsedge) [6]; 0.1250 kg/ha,0.0
same,Herbicidal rating CYPIR,CYPIR (Rice Flatsedge) [6]; 0.2500 kg/ha,0.0
same,Herbicidal rating CYPSE,CYPSE (Flatsedge) [7]; 0.0313 kg/ha,0.0
same,Herbicidal rating CYPSE,CYPSE (Flatsedge) [7]; 0.0625 kg/ha,0.0
same,Herbicidal rating CYPSE,CYPSE (Flatsedge) [7]; 0.1250 kg/ha,0.0
same,Herbicidal rating CYPSE,CYPSE (Flatsedge) [7]; 0.2500 kg/ha,0.0
same,Herbicidal rating MOOVA,MOOVA (Monochoria) [8]; 0.0313 kg/ha,6.0
same,Herbicidal rating MOOVA,MOOVA (Monochoria) [8]; 0.0625 kg/ha,6.0
same,Herbicidal rating MOOVA,MOOVA (Monochoria) [8]; 0.1250 kg/ha,9.0
same,Herbicidal rating MOOVA,MOOVA (Monochoria) [8]; 0.2500 kg/ha,9.0
same,Herbicidal rating SAGPY,[9]; 0.0313 kg/ha,0.0
same,Herbicidal rating SAGPY,[9]; 0.0625 kg/ha,0.0
same,Herbicidal rating SAGPY,[9]; 0.1250 kg/ha,0.0
same,Herbicidal rating SAGPY,[9]; 0.2500 kg/ha,0.0
same,Herbicidal rating ECHORC,[10]; rate 0.0313 kg/ha,0.0
same,Herbicidal rating ECHORC,[10]; rate 0.0625 kg/ha,0.0
same,Herbicidal rating ECHORC,[10]; rate 0.1250 kg/ha,3.0
same,Herbicidal rating ECHORC,[10]; rate 0.2500 kg/ha,5.0
same,Herbicidal rating CYPIR,CYPIR (Rice Flatsedge) [11]; rate 0.0313 kg/ha,0.0
same,Herbicidal rating CYPIR,CYPIR (Rice Flatsedge) [11]; rate 0.0625 kg/ha,0.0
same,Herbicidal rating CYPIR,CYPIR (Rice Flatsedge) [11]; rate 0.1250 kg/ha,0.0
same,Herbicidal rating CYPIR,CYPIR (Rice Flatsedge) [11]; rate 0.2500 kg/ha,0.0
same,Herbicidal rating CYPSE,CYPSE (Flatsedge) [12]; rate 0.0313 kg/ha,0.0
same,Herbicidal rating CYPSE,CYPSE (Flatsedge) [12]; rate 0.0625 kg/ha,0.0
same,Herbicidal rating CYPSE,CYPSE (Flatsedge) [12]; rate 0.1250 kg/ha,0.0
same,Herbicidal rating CYPSE,CYPSE (Flatsedge) [12]; rate 0.2500 kg/ha,0.0
same,Herbicidal rating MOOVA,MOOVA (Monochoria) [13]; rate 0.0313 kg/ha,6.0
same,Herbicidal rating MOOVA,MOOVA (Monochoria) [13]; rate 0.0625 kg/ha,6.0
same,Herbicidal rating MOOVA,MOOVA (Monochoria) [13]; rate 0.1250 kg/ha,9.0
same,Herbicidal rating MOOVA,MOOVA (Monochoria) [13]; rate 0.2500 kg/ha,9.0
same,Herbicidal rating SAGPY,[14]; rate 0.0313 kg/ha,0.0
same,Herbicidal rating SAGPY,[14]; rate 0.0625 kg/ha,0.0
same,Herbicidal rating SAGPY,[14]; rate 0.1250 kg/ha,0.0
same,Herbicidal rating SAGPY,[14]; rate 0.2500 kg/ha,0.0
